Assay results published in ChEMBL document CHEMBL1156187, “Discovery of a selective small-molecule melanocortin-4 receptor agonist with efficacy in a pilot study of sexual dysfunction in humans” (J Med Chem, 2010).
Activity calls are given as the source filed them. No cut-off for these calls is given here.

Key:
[1] = Terminal half life in human at 195 mg, po; format: ADME, organism-based; settings: in vivo, read-out: beta t1/2 (converted)
[2] = Half life in dog at 0.14 mg/kg, sublingual; format: ADME, organism-based, Canis lupus familiaris; design: dose 0.14 mg/kg; settings: in vivo
[3] = AUC (0 to infinity) in dog at 2.04 mg/kg, sublingual; format: ADME, organism-based, Canis lupus familiaris; design: time infinity, dose 2.04 mg/kg, route sublingual; settings: plasma
[4] = Intrinsic clearance in human liver microsome measured per mg of protein; format: ADME; settings: liver microsomes
[5] = Binding affinity to sigma opioid receptor
[6] = Tmax in dog at 2.04 mg/kg, sublingual; format: ADME, organism-based, Canis lupus familiaris; design: dose 2.04 mg/kg; settings: in vivo
Homo sapiens [7] = experiment: Reversal of erectile dysfunction in human assessed as visual sexual stimulation at 200 mg, po after 2 hrs post dose; format: functional, organism-based
Homo sapiens [8] = experiment: Reversal of erectile dysfunction in human assessed as non-visual sexual stimulation at 200 mg, po dosed twice with the interval of 7 days after 2 hrs post dose; format: functional, organism-based
[9] = Drug excretion in rat urine assessed as parent compound level at 195 mg; format: ADME; settings: read-out: Drug uptake
[10] = Half life in dog at 2.04 mg/kg, sublingual; format: ADME, organism-based, Canis lupus familiaris; design: dose 2.04 mg/kg; settings: in vivo
[11] = Bioavailability in dog at 2.04 mg/kg, sublingual; format: ADME, organism-based, Canis lupus familiaris; settings: in vivo
[12] = Half life in dog at 0.5 mg/kg, po; format: ADME, organism-based, Canis lupus familiaris; design: dose 0.5 mg/kg, route oral; settings: in vivo
[13] = Intrinsic clearance in dog liver microsome measured per mg of protein; format: ADME, Canis lupus familiaris; settings: microsomes
[14] = Bioavailability in dog at 0.14 mg/kg, sublingual; format: ADME, organism-based, Canis lupus familiaris; settings: in vivo
Liver microsomes = experiment: Intrinsic clearance in rat liver microsome measured per mg of protein; format: ADME
[15] = Clearance in rat at 1 mg/kg, iv; format: ADME, organism-based; design: dose 1 mg/kg, route intravenous; settings: in vivo
[16] = Cmax in dog at 0.14 mg/kg, intranasal; format: ADME, organism-based, Canis lupus familiaris; design: route nasal, dose 0.14 mg/kg; settings: in vivo, inhaled or intranasal
[17] = Cmax in dog at 2.04 mg/kg, sublingual; format: ADME, organism-based, Canis lupus familiaris; design: dose 2.04 mg/kg, route sublingual; settings: in vivo
[18] = Volume of distribution at steady state in dog plasma at 0.5 mg/kg, iv; format: ADME, organism-based, Canis lupus familiaris; design: dose 0.5 mg/kg, route intravenous; settings: read-out: Vdss
[19] = Cmax in dog at 0.14 mg/kg, sublingual; format: ADME, organism-based, Canis lupus familiaris; design: route sublingual, dose 0.14 mg/kg; settings: in vivo
[20] = Half life in rat at 1 mg/kg, iv; format: ADME, organism-based; design: dose 1 mg/kg, route intravenous; settings: in vivo
[21] = Tmax in dog at 0.5 mg/kg, po; format: ADME, organism-based, Canis lupus familiaris; design: dose 0.5 mg/kg, route oral; settings: in vivo
Melanocortin receptor 5 = Melanocortin receptor 5 (Homo sapiens, UniProt P33032); experiment: Agonist activity at human recombinant MC5 receptor expressed in HEK293 cells assessed as cAMP accumulation by beta lactamase reporter gene assay; format: functional, cell-based
[22] = Cmax in dog at 0.5 mg/kg, po; format: ADME, organism-based, Canis lupus familiaris; design: dose 0.5 mg/kg, route oral; settings: in vivo
[23] = biological target: Melanocyte-stimulating hormone receptor (Homo sapiens, UniProt Q01726); experiment: Agonist activity at human recombinant MC1 receptor expressed in HEK293 cells assessed as cAMP accumulation by enzyme fragment complementation assay relative to alpha melanocyte-stimulating hormone; format: functional, cell-based
Homo sapiens [24] = experiment: Reversal of erectile dysfunction in human assessed as non-visual sexual stimulation at 200 mg, po after 2 hrs post dose; format: functional, organism-based
[25] = Apparent Permeability from apical to basolateral side of MDCK2 cells over expressing MDR1; format: ADME, cell-based, Canis lupus familiaris; settings: dog, MDCK-MDR1; read-out: permeability
[26] = Tmax in dog at 0.14 mg/kg, intranasal; format: ADME, organism-based, Canis lupus familiaris; design: dose 0.14 mg/kg; settings: in vivo, inhaled or intranasal
[27] = Apparent Permeability from basolateral to apical side of MDCK2 cells over expressing MDR1; format: ADME, cell-based, Canis lupus familiaris; settings: dog, MDCK-MDR1; read-out: permeability
[28] = Association constant, pKa of the compound; format: physicochemical
[29] = Tmax in dog at 0.67 mg/kg, sublingual; format: ADME, organism-based, Canis lupus familiaris; design: dose 0.67 mg/kg; settings: in vivo

Melanocyte-stimulating hormone receptor, sequence (Q01726 whole entry, looked up, the tested form may be a part): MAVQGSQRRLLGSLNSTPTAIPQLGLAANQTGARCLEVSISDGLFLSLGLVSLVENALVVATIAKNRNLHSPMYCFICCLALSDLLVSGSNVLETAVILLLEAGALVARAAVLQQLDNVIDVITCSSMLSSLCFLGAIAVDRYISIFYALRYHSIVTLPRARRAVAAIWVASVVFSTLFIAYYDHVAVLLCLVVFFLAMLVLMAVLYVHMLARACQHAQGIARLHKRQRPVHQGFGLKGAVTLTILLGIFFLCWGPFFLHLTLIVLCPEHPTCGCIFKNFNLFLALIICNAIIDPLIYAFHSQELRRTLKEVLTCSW
Melanocortin receptor 5, sequence (P33032 whole entry): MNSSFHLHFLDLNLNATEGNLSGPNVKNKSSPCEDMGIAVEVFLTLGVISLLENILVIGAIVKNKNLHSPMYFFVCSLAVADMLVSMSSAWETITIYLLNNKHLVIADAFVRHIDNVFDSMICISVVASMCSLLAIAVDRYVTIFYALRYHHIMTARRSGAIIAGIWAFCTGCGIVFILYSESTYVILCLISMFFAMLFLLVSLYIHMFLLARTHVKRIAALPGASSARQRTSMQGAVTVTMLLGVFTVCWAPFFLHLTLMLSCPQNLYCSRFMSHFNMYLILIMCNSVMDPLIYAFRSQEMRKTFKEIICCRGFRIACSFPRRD

**Q.** Which half-life [1] does the source give for `C[C@@H]1CN(C(=O)[C@@H]2CN(C(C)(C)C)C[C@H]2c2ccc(F)cc2F)C[C@H](C)[C@@]1(O)c1ccccc1.Cl` here?
**A.** 12 h

**Q.** And the half-life [2]?
**A.** 3.7 h

**Q.** What about the AUC(0-inf) [3] of the same compound?
**A.** 146 ng·h/mL

**Q.** What about the microsomal CLint [4] of the same compound?
**A.** 45 µL/min/mg

**Q.** What about the Ki [5] of the same compound?
**A.** 330 nM

**Q.** And the Tmax [6]?
**A.** 0.3 h

**Q.** And the Activity (Homo sapiens [7])?
**A.** Active

**Q.** And the Activity (Homo sapiens [8])?
**A.** Active

**Q.** And the dose excreted [9]?
**A.** < 2.5%

**Q.** And the half-life [10]?
**A.** 4 h

**Q.** What about the bioavailability [11] of the same compound?
**A.** 20%

**Q.** And the half-life [12]?
**A.** 1.9 h

**Q.** What about the clearance [13] of the same compound?
**A.** 242 µL/min/mg

**Q.** What about the bioavailability [14] of the same compound?
**A.** 35%

**Q.** What about the clearance (Liver microsomes) of the same compound?
**A.** 60 µL/min/mg

**Q.** What about the clearance [15] of the same compound?
**A.** 89 mL/min/kg

**Q.** What about the Cmax [16] of the same compound?
**A.** 2.6 ng/mL

**Q.** And the Cmax [17]?
**A.** 41 ng/mL

**Q.** And the Vd [18]?
**A.** 17 L/kg

**Q.** What about the Cmax [19] of the same compound?
**A.** 2.6 ng/mL

**Q.** What about the half-life [20] of the same compound?
**A.** 2.4 h

**Q.** What about the Tmax [21] of the same compound?
**A.** 1 h

**Q.** And the EC50 (Melanocortin receptor 5)?
**A.** 1980 nM

**Q.** What about the Cmax [22] of the same compound?
**A.** 0.9 ng/mL

**Q.** What about the Emax [23] of the same compound?
**A.** 103%

**Q.** And the Activity (Homo sapiens [24])?
**A.** Active

**Q.** And the Papp A→B [25]?
**A.** 41 ×10⁻⁶ cm/s

**Q.** And the Tmax [26]?
**A.** 1.6 h

**Q.** What about the Papp B→A [27] of the same compound?
**A.** 18 ×10⁻⁶ cm/s

**Q.** What about the pKa [28] of the same compound?
**A.** 8.95

**Q.** And the Tmax [29]?
**A.** 0.3 h
